Laboratory results published in patent US10344330B2, “Glatiramer acetate response biomarker mRNA potency assay” (Mylan Inc., priority 2013, dated 2019).

How the values were obtained:
Format in all cases: cell-based
[1] = system: mouse IL-4 mRNA in primary LN cells; test: Mouse IL-4 mRNA in LN cells of immunized SJL/J mice stimulated with Copaxone and GMA lots, normalized to Actβ or GAPDH (Example V)
Experimental: A real-time polymerase chain reaction method was used to measure the expression of cytokine mRNA in GA-stimulated LN cells from GA-immunized SJL/J mice. Normalization of expression with two different housekeeping genes, GAPDH and β-actin, was tested.
Each group consisted of six female SJL/J mice immunized by injection in all four footpads with a total dose of 250 μg of one lot of GA, or mannitol and no GA. Three Copaxone batches and three GMA batches were used to immunize the mice. CFA was included in both GA and mannitol immunizations. Ten days following immunization, LN cell samples isolated from the immunized mice were each stimulated with a concentration of a Copaxone lot and a GMA lot. A positive control of 2.5 μg/mL ConA treated LN cells and a negative control of 10 μg/mL MBP treated cells were included in each group.
Therefore, the Q-PCR analysis was repeated on the samples, measuring levels of IL-2, IL-4, IL-5, and IL-13, using both GAPDH and β-actin as reference gene.

[2] = system: mouse IL-5 mRNA in primary LN cells; test: Validation: mouse IL-5 mRNA by real-time PCR in LN cells of GA-immunized SJL/J mice (Example IV); conditions: for IL-5 mRNA Fold Change: normalized to GAPDH; for induction of IL-5 mRNA: 20 μg/mL GA, 6 hours
Experimental: (§1) Three experiments were conducted using one batch of GA (Mylan GMA). The primary LN cells were stimulated by incubation with 6 concentrations (0.3 to 20 μg/mL) of the GA for 6 hours at 37° C. Total RNA was isolated from LN cells stimulated with GA or controls. cDNA was synthesized from the RNA and the mRNA levels of seven mouse cytokines, IL-2, IL-4, IL-5, IL-10, IL-13, interferon (IFN)-γ and tumor necrosis factor (TNF)-α, were quantitatively measured by a real-time PCR method.
(§2) Female SJL/J mice at 8-9 weeks of age were immunized by injection into four footpads using a 1 mL syringe with a 27-G, ½-inch needle. Each mouse received a total injection volume of 0.1 mL of GMA emulsified in CFA (about 10 μL into each of the front footpads and 40 μL into each of the hind footpads). Animals were immunized on Day 0. After injection, animals were placed back in their cages and housed ≤6 animals per cage.
(§3) Immunized animals were sacrificed by cervical dislocation on Day 10 following immunization. […] After centrifugation at about 200×g for 10 minutes at 4° C., the cell pellet was re-suspended in 40 mL of DCCM-1 medium for cell counting. A Trypan blue exclusion method was used to determine the cell density of viable cells in the suspension. After cell counting, the LN cells were suspended in enriched DCCM-1 medium at density of 7.5×10^6 cells/mL. LN cells (0.12 mL) were plated into each well of 96-well tissue culture plates.
(§4) Dilutions of GA (Mylan GMA) were prepared using enriched DCCM-1 medium as the diluent. GA dilutions (0.12 mL) were added in the assigned wells of 96-well tissue culture plates. The same volume of LN cells (0.12 mL) isolated from immunized animals was added to the assigned wells. A positive control and a negative control were always performed in the same assay by treating LN cells with 2.5 μg/mL ConA and 10 μg/mL MBP, respectively. The LN cells with mock stimulation protocols (enriched DCCM-1 medium) were used to monitor the background mRNA level of a cytokine. The plates were incubated at 37° C. in a humidified 5% CO2 incubator for 6 hr.
(§5) At the end of incubation time, culture medium from stimulated cells was removed by aspiration and the cells were lysed using Qiagen or Promega lysis buffer. The lysate was transferred to an RNeasy Mini column (Qiagen) or wells of the SV 96 Binding Plate (Promega) for RNA isolation and cDNA synthesis. All tested samples were run in triplicate.
(§6) The SV 96 Total RNA Isolation System (Promega; Cat. No. Z3505) was used for total RNA isolation. Assay procedures were carried out according to each manufacturer's protocol. RNA samples were stored at −70° C. until use. […] The assay procedure was carried out according to the manufacturer's protocol.
(§7) The plate was centrifuged at 2000 rpm for 2 minutes at 4° C. to spin down the contents and eliminate air bubbles. Samples were prepared and run in a 96-well plate using a Life Technologies Real-Time PCR system (previously Applied Biosystems; Model No. 7500) according to the manufacturer's recommendation. The mix for the reference gene was prepared in the same way using the reference gene primer.
(§8) A relative quantitation method was used to analyze changes in mIL-2, mIL-4, mIL-5, mIL-10, mIL-13, mIFN-γ and TNF-α expression in GA treated samples relative to the untreated control (Enriched DCCM-1 treated) samples using the following program:
(§9) Levels of mouse cytokine amplicons were normalized to an internal probe level (GAPDH) from the same samples. The following equations were used to calculate the relative increase in response to GA stimulation compared to the control sample (Enriched DCCM1 sample): […]

[3] = system: mouse IL-4 mRNA in primary LN cells; test: Validation: mouse IL-4 mRNA by real-time PCR in LN cells of GA-immunized SJL/J mice (Example IV); conditions: for IL-4 mRNA Fold Change: normalized to GAPDH; for induction of IL-4 mRNA: 20 μg/mL GA, 6 hours
Experimental: as §1, §2, §3, §4, §5, §6, §7, §8, §9

[4] = SJL/J, different concentrations of GA vs unstimulated LN cells

Concanavalin A [ConA, reference compound]
IL-4 mRNA Fold Change ([1]; Group 3 (mice immunized with GA-M2 Mylan GMA), 2.5 μg/mL, normalized to Actβ): 43.6 fold
IL-4 mRNA Fold Change ([1]; Group 3 (mice immunized with GA-M2 Mylan GMA), 2.5 μg/mL, normalized to GAPDH): 87.9 fold
IL-4 mRNA Fold Change ([1]; Group 4 (mice immunized with GA-C2 Copaxone), 2.5 μg/mL, normalized to Actβ): 48.3 fold
IL-4 mRNA Fold Change ([1]; Group 4 (mice immunized with GA-C2 Copaxone), 2.5 μg/mL, normalized to GAPDH): 84.8 fold
IL-5 mRNA Fold Change ([2]; Experiment 1, 2.5 μg/mL): 22.4 fold
IL-5 mRNA Fold Change ([2]; Experiment 2, 2.5 μg/mL): 11.3 fold
IL-5 mRNA Fold Change ([2]; Experiment 3, 2.5 μg/mL): 31.0 fold
IL-4 mRNA Fold Change ([3]; Experiment 1, 2.5 μg/mL): 148.6 fold
IL-4 mRNA Fold Change ([3]; Experiment 2, 2.5 μg/mL): 21.0 fold
IL-4 mRNA Fold Change ([3]; Experiment 3, 2.5 μg/mL): 53.8 fold

L-glutamic acid polymer with L-alanine, L-lysine and L-tyrosine, acetate (salt) [GA]
IL-4 cross-potency ([1]; Copaxone: C/A, GMA: B/D, 5 μg/mL): 103%
induction of IL-5 mRNA ([2]; SJL/J, Exp 1): 5.2 fold
induction of IL-5 mRNA ([2]; SJL/J, Exp 2): 5.3 fold
induction of IL-5 mRNA ([2]; SJL/J, Exp 3): 15.2 fold
induction of IL-5 mRNA (in words) [2, 4]: moderate induction
induction of IL-4 mRNA ([3]; SJL/J, Exp 1): 41.3 fold
induction of IL-4 mRNA ([3]; SJL/J, Exp 2): 11.8 fold
induction of IL-4 mRNA ([3]; SJL/J, Exp 3): 27.6 fold
induction of IL-4 mRNA (in words) [3, 4]: robust induction

B1: MBP: myelin basic protein, a negative control (protein, UniProt P02686 1-304, looked up)
Myelin basic protein: MGNHAGKRELNAEKASTNSETNRGESEKKRNLGELSRTTSEDNEVFGEADANQNNGTSSQDTAVTDSKRTADPKNAWQDAHPADPGSRPHLIRLFSRDAPGREDNTFKDRPSESDELQTIQEDSAATSESLDVMASQKRPSQRHGSKYLATASTMDHARHGFLPRHRDTGILDSIGRFFGGDRGAPKRGSGKDSHHPARTAHYGSLPQKSHGRTQDENPVVHFFKNIVTPRTPPPSQGKGRGLSLSRFSWGAEGQRPGFGYGGRASDYKSAHKGFKGVDAQGTLSKIFKLGGRDSRSGSPMARR
IL-4 mRNA Fold Change ([1]; Group 3 (mice immunized with GA-M2 Mylan GMA), 10 μg/mL, normalized to Actβ): 0.8 fold
IL-4 mRNA Fold Change ([1]; Group 3 (mice immunized with GA-M2 Mylan GMA), 10 μg/mL, normalized to GAPDH): 0.7 fold
IL-4 mRNA Fold Change ([1]; Group 4 (mice immunized with GA-C2 Copaxone), 10 μg/mL, normalized to Actβ): 2.4 fold
IL-4 mRNA Fold Change ([1]; Group 4 (mice immunized with GA-C2 Copaxone), 10 μg/mL, normalized to GAPDH): 1.3 fold
IL-5 mRNA Fold Change ([2]; Experiment 1, 10 μg/mL): 0.8 fold
IL-5 mRNA Fold Change ([2]; Experiment 2, 10 μg/mL): 0.8 fold
IL-5 mRNA Fold Change ([2]; Experiment 3, 10 μg/mL): 2.6 fold
IL-4 mRNA Fold Change ([3]; Experiment 1, 10 μg/mL): 2.7 fold
IL-4 mRNA Fold Change ([3]; Experiment 2, 10 μg/mL): 0.8 fold
IL-4 mRNA Fold Change ([3]; Experiment 3, 10 μg/mL): 1.1 fold
